Measured values: PubChem BioAssay AID1259407 (Chemical Carcinogenesis Research Information System (CCRIS), 2018)
The source made the active and inactive calls. The rule behind the calls is not given here.

System: CCRIS mutagenicity, Ames/micronucleus/aberration tests
Assay: CCRIS mutagenicity studies

Measured: mutagenic call

F
inactive: End Point: IN VIVO MICRONUCLEUS, Test System: BONE MARROW POLYCHROMATIC ERYTHROCYTES, Species: MOUSE, Strain/Sex: DDY/MALE, Route: IP inactive; negative | Test System: AMES SALMONELLA TYPHIMURIUM, Strain/Indicator: TA97A, Metabolic Activation: NONE, Method: STANDARD PLATE inactive; negative | Test System: AMES SALMONELLA TYPHIMURIUM, Strain/Indicator: TA97A, Metabolic Activation: RAT, LIVER, S-9, AROCLOR 1254, Method: STANDARD PLATE inactive; negative | Test System: AMES SALMONELLA TYPHIMURIUM, Strain/Indicator: TA98, Metabolic Activation: HAMSTER, LIVER, S-9, AROCLOR 1254 (10%), Method: PREINCUBATION inactive; negative | Test System: AMES SALMONELLA TYPHIMURIUM, Strain/Indicator: TA98, Metabolic Activation: NONE, Method: FLUCTUATION TEST inactive; negative | Test System: AMES SALMONELLA TYPHIMURIUM, Strain/Indicator: TA98, Metabolic Activation: NONE, Method: PREINCUBATION inactive; negative | Test System: AMES SALMONELLA TYPHIMURIUM, Strain/Indicator: TA98, Metabolic Activation: NONE, Method: STANDARD PLATE inactive; negative | Test System: AMES SALMONELLA TYPHIMURIUM, Strain/Indicator: TA98, Metabolic Activation: RAT, LIVER, S-9, AROCLOR 1254 (10%), Method: PREINCUBATION inactive; negative | Test System: AMES SALMONELLA TYPHIMURIUM, Strain/Indicator: TA98, Metabolic Activation: RAT, LIVER, S-9, AROCLOR 1254, Method: STANDARD PLATE inactive; negative | Test System: AMES SALMONELLA TYPHIMURIUM, Strain/Indicator: TA98, Metabolic Activation: RAT, LIVER, S-9, AROCLOR, Method: PREINCUBATION inactive; negative | Test System: AMES SALMONELLA TYPHIMURIUM, Strain/Indicator: TA98, Metabolic Activation: RAT, LIVER, S-9, PCB, Method: FLUCTUATION TEST inactive; negative | Test System: AMES SALMONELLA TYPHIMURIUM, Strain/Indicator: TA98, Metabolic Activation: RAT, LIVER, S-9, PCB, Method: STANDARD PLATE inactive; negative | Test System: AMES SALMONELLA TYPHIMURIUM, Strain/Indicator: TA98, Metabolic Activation: RAT, LIVER, S-9, PHENOBARBITAL, Method: STANDARD PLATE inactive; negative | Test System: AMES SALMONELLA TYPHIMURIUM, Strain/Indicator: TA100, Metabolic Activation: HAMSTER, LIVER, S-9, AROCLOR 1254 (10%), Method: PREINCUBATION inactive; negative | Test System: AMES SALMONELLA TYPHIMURIUM, Strain/Indicator: TA100, Metabolic Activation: NONE, Method: FLUCTUATION TEST inactive; negative | Test System: AMES SALMONELLA TYPHIMURIUM, Strain/Indicator: TA100, Metabolic Activation: NONE, Method: PREINCUBATION inactive; negative | Test System: AMES SALMONELLA TYPHIMURIUM, Strain/Indicator: TA100, Metabolic Activation: NONE, Method: STANDARD PLATE inactive; negative | Test System: AMES SALMONELLA TYPHIMURIUM, Strain/Indicator: TA100, Metabolic Activation: RAT, LIVER, S-9, AROCLOR 1254 (10%), Method: PREINCUBATION inactive; negative | Test System: AMES SALMONELLA TYPHIMURIUM, Strain/Indicator: TA100, Metabolic Activation: RAT, LIVER, S-9, AROCLOR 1254, Method: STANDARD PLATE inactive; negative | Test System: AMES SALMONELLA TYPHIMURIUM, Strain/Indicator: TA100, Metabolic Activation: RAT, LIVER, S-9, AROCLOR, Method: PREINCUBATION inactive; negative | Test System: AMES SALMONELLA TYPHIMURIUM, Strain/Indicator: TA100, Metabolic Activation: RAT, LIVER, S-9, PCB, Method: FLUCTUATION TEST inactive; negative | Test System: AMES SALMONELLA TYPHIMURIUM, Strain/Indicator: TA100, Metabolic Activation: RAT, LIVER, S-9, PCB, Method: STANDARD PLATE inactive; negative | Test System: AMES SALMONELLA TYPHIMURIUM, Strain/Indicator: TA100, Metabolic Activation: RAT, LIVER, S-9, PHENOBARBITAL, Method: STANDARD PLATE inactive; negative | Test System: AMES SALMONELLA TYPHIMURIUM, Strain/Indicator: TA102, Metabolic Activation: NONE, Method: STANDARD PLATE inactive; negative | Test System: AMES SALMONELLA TYPHIMURIUM, Strain/Indicator: TA102, Metabolic Activation: RAT, LIVER, S-9, AROCLOR 1254, Method: STANDARD PLATE inactive; negative | Test System: AMES SALMONELLA TYPHIMURIUM, Strain/Indicator: TA1535, Metabolic Activation: HAMSTER, LIVER, S-9, AROCLOR 1254 (10%), Method: PREINCUBATION inactive; negative | Test System: AMES SALMONELLA TYPHIMURIUM, Strain/Indicator: TA1535, Metabolic Activation: NONE, Method: PREINCUBATION inactive; negative | Test System: AMES SALMONELLA TYPHIMURIUM, Strain/Indicator: TA1535, Metabolic Activation: NONE, Method: STANDARD PLATE inactive; negative | Test System: AMES SALMONELLA TYPHIMURIUM, Strain/Indicator: TA1535, Metabolic Activation: RAT, LIVER, S-9, AROCLOR 1254 (10%), Method: PREINCUBATION inactive; negative | Test System: AMES SALMONELLA TYPHIMURIUM, Strain/Indicator: TA1535, Metabolic Activation: RAT, LIVER, S-9, AROCLOR 1254, Method: STANDARD PLATE inactive; negative | Test System: AMES SALMONELLA TYPHIMURIUM, Strain/Indicator: TA1535, Metabolic Activation: RAT, LIVER, S-9, AROCLOR, Method: PREINCUBATION inactive; negative | Test System: AMES SALMONELLA TYPHIMURIUM, Strain/Indicator: TA1537, Metabolic Activation: HAMSTER, LIVER, S-9, AROCLOR 1254 (10%), Method: PREINCUBATION inactive; negative | Test System: AMES SALMONELLA TYPHIMURIUM, Strain/Indicator: TA1537, Metabolic Activation: NONE, Method: PREINCUBATION inactive; negative | Test System: AMES SALMONELLA TYPHIMURIUM, Strain/Indicator: TA1537, Metabolic Activation: RAT, LIVER, S-9, AROCLOR 1254 (10%), Method: PREINCUBATION inactive; negative | Test System: AMES SALMONELLA TYPHIMURIUM, Strain/Indicator: TA1537, Metabolic Activation: RAT, LIVER, S-9, AROCLOR, Method: PREINCUBATION inactive; negative | Test System: AMES SALMONELLA TYPHIMURIUM, Strain/Indicator: TA1538, Metabolic Activation: NONE, Method: PREINCUBATION inactive; negative | Test System: AMES SALMONELLA TYPHIMURIUM, Strain/Indicator: TA1538, Metabolic Activation: RAT, LIVER, S-9, AROCLOR, Method: PREINCUBATION inactive; negative | Test System: CHINESE HAMSTER OVARY, Strain/Indicator: CHO-K1-BH4 (HGPRT), Metabolic Activation: NONE, Method: SUSPENSION/PLATE inactive; negative | Test System: CHINESE HAMSTER OVARY, Strain/Indicator: CHO-K1-BH4 (HGPRT), Metabolic Activation: RAT, LIVER, S-9, AROCLOR, Method: SUSPENSION/PLATE inactive; negative | Test System: CHINESE HAMSTER V-79, Strain/Indicator: V-79 (HGPRT)/6-THIOGUANINE, Metabolic Activation: NONE inactive; negative | Test System: CHINESE HAMSTER V-79, Strain/Indicator: V-79/6-THIOGUANINE, Metabolic Activation: NONE inactive; negative | Test System: E.COLI, Strain/Indicator: WP2 UVRA, Metabolic Activation: NONE, Method: FLUCTUATION TEST inactive; negative | Test System: E.COLI, Strain/Indicator: WP2 UVRA, Metabolic Activation: RAT, LIVER, S-9, PCB, Method: FLUCTUATION TEST inactive; negative
active: Test System: MOUSE LYMPHOMA, Strain/Indicator: L5178Y (TK+/TK-), Metabolic Activation: NONE, Method: SUSPENSION/PLATE active; positive | Test System: MOUSE LYMPHOMA, Strain/Indicator: L5178Y (TK+/TK-), Metabolic Activation: RAT, LIVER, S-9, AROCLOR 1254, Method: SUSPENSION/PLATE active; positive
